# Key:
# [1] = test system: PEA induced stereotype behavior; assay: PEA induced stereotype behavior in rats; format: in vivo, rat
# human brain MAO B = molecular target: T1, human brain MAO B (Homo sapiens, UniProt P27338); assay: MAO B activity in human brain homogenate (14C-PEA substrate); format: biochemical
# T1 construct: Human and rat caudate nuclei were homogenized in 0.32M sucrose; from tissue; host or cells: human caudate nucleus homogenate (1%)
# T1 sequence (P27338 1-520): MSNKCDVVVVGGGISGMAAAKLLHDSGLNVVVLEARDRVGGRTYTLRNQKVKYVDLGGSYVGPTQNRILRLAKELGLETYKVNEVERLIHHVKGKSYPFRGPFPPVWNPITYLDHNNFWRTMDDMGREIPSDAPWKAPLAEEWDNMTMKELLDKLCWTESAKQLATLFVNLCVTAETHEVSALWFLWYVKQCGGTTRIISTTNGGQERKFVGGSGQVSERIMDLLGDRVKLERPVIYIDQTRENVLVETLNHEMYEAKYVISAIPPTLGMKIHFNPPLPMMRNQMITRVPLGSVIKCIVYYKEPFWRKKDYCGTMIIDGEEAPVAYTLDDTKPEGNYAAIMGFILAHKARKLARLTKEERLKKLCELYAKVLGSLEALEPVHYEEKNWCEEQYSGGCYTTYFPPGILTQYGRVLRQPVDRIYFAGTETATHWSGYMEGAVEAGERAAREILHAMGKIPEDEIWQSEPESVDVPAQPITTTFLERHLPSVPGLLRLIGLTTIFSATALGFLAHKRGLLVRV
# cancer patients = details: cited from earlier work
# rat brain MAO A = molecular target: T2, rat brain MAO A (Rattus norvegicus, UniProt P21396); assay: MAO A activity in rat brain homogenate (14C-5HT substrate); format: biochemical; details: substrate 14C-5HT; SD ±6.0
# T2 construct: Human and rat caudate nuclei were homogenized in 0.32M sucrose; from tissue; host or cells: rat caudate nucleus homogenate (1%)
# T2 sequence (P21396 1-526): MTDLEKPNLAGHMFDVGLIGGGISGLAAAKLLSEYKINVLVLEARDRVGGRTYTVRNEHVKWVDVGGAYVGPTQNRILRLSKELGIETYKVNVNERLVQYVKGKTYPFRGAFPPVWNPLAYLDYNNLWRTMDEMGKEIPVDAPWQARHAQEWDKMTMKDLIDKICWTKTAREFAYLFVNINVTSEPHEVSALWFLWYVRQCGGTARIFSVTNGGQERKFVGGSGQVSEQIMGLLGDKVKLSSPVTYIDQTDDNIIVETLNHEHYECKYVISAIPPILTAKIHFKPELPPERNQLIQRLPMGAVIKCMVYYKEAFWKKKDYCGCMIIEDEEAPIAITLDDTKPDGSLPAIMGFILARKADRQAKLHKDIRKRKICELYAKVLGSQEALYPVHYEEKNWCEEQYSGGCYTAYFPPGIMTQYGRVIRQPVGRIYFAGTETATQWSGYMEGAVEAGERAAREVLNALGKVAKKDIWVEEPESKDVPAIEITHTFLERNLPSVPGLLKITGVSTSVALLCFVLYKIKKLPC
# [2] = test system: rat caudate nucleus (H^3-spiroperidol); assay: Displacement of H^3-spiroperidol from rat caudate nucleus; format: binding; details: in vitro
# rat brain MAO B = molecular target: T3, rat brain MAO B (Rattus norvegicus, UniProt P19643); assay: MAO B activity in rat brain homogenate (14C-PEA substrate); format: biochemical
# T3 construct: Human and rat caudate nuclei were homogenized in 0.32M sucrose; from tissue; host or cells: rat caudate nucleus homogenate (1%)
# T3 sequence (P19643 1-520): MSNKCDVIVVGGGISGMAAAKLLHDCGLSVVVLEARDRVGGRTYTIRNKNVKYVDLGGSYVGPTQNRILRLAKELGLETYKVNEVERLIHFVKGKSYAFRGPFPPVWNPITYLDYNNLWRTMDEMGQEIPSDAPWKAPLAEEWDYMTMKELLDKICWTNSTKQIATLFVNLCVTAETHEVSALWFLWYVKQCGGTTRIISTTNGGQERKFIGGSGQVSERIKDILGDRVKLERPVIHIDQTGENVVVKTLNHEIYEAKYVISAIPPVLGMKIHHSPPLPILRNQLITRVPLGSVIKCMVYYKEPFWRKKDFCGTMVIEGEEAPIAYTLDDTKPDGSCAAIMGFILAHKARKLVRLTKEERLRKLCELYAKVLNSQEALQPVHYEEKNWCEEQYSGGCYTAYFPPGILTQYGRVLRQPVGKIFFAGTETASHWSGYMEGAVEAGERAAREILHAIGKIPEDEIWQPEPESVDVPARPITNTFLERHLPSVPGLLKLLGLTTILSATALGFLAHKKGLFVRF
# human brain MAO A = molecular target: T4, human brain MAO A (Homo sapiens, UniProt P21397); assay: MAO A activity in human brain homogenate (14C-5HT substrate); format: biochemical; details: substrate 14C-5HT; SD 15.1
# T4 construct: Human and rat caudate nuclei were homogenized in 0.32M sucrose; from tissue; host or cells: human caudate nucleus homogenate (1%)
# T4 sequence (P21397 1-527): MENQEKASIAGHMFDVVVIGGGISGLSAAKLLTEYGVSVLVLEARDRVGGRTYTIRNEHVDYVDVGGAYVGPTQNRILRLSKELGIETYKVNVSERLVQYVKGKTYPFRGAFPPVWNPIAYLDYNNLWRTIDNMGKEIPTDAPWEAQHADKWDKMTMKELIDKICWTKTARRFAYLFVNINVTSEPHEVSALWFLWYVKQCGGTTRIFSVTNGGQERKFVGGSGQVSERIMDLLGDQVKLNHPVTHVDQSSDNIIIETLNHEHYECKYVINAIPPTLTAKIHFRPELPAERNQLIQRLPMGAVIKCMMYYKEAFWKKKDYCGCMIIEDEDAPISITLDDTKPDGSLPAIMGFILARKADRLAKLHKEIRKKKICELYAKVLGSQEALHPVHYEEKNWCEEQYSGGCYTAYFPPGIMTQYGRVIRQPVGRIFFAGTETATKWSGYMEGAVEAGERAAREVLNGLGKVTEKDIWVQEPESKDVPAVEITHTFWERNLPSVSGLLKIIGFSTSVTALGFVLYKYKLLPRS
# [3] = test system: apomorphine and amphetamine induced locomotor changes; assay: Reversal of apomorphine and amphetamine induced locomotor changes in rats; format: in vivo, rat
# Excerpt: Thereafter, an analysis of a PAPD was undertaken in vitro and in vivo beginning with antipsychotic (neuroleptic) and antidepressant activity. […] The two distinct forms of the enzyme have been designated as type A (serotonin metabolizing and clorgyline sensitive) and type […] metabolizing and clorgyline insensitive). Based on the stereochemical model, it was predicted that PAPD's effect on MAO type B would be greater than its effect on MAO type A. In vitro data has substantiated this prediction.
# [4] = test system: PEA induced rotations in unilateral nigral lesioned rats; assay: Rotational behavior in unilateral substantia nigra 6-hydroxydopamine lesioned rats; format: in vivo, rat
# human platelet MAO B = molecular target: T5, human platelet MAO B (Homo sapiens, UniProt P27338); assay: Inhibition of platelet MAO B activity in vitro (human platelets); format: biochemical
# T5 construct: The platelet pellet was resuspended in 5.0 ml of 0.1 M phosphate buffer with pH 7.4 by sonication; from tissue; host or cells: human blood platelets from normal volunteers, sonicated
# T5 sequence (P27338 1-520): T1 sequence (P27338 1-520)
# [5] = test system: reserpine-induced akinesia; assay: PEA reversal of reserpine-induced akinesia in rats; format: in vivo, rat
# [6] = PAPD (200 mg/kg by context), 1 h prior to PEA
# [7] = clorgyline 5 mg/kg, 1 h prior to PEA
# [8] = deprenyl 10 mg/kg, 1 h prior to PEA
# [9] = pargyline 50 mg/kg, prior to PEA
smiles,measurement,setting,value
"O=C1CCC(NC(=O)Cc2ccccc2)C(=O)N1 (centres unmarked) [PAPD, 3-N-phenylacetylamino-2,6-piperidinedione]",duration of stereotype behavior,[1]; 4 and 24 hours after PAPD (both groups),30 min
same,animals displaying forepaw padding/sniffing/headweaving,[1]; 4 hours after PAPD,50%
same,animals displaying forepaw padding/sniffing/headweaving,[1]; 24 hours after PAPD,66%
same,effect on PEA behavior,[1]; PAPD 50 and 100 mg/kg pretreatment,no effects on PEA behavior were noticed
same,animals with forepaw padding with continuous sniffing as well as headweaving,[1]; PAPD 200 and 400 mg/kg,100%
same,duration of stereotype behavior,[1]; PAPD 200 and 400 mg/kg,45 to 50 min
same,other stereotype behavior,[1]; PAPD 200 and 400 mg/kg,headbobbing
same,animals with forepaw padding with continuous sniffing as well as headweaving,[1]; PAPD one and two hours prior to PEA,100%
same,duration of stereotype behavior,[1]; PAPD one hour prior to PEA,45 min
same,duration of stereotype behavior,[1]; PAPD two hours prior to PEA,55 min
same,selectivity for type B MAO,human brain MAO B; human brain tissue,five times more selective
same,IC50,"human brain MAO B; substrate 14C-PEA, PAPD SD 3.7",19.9 µM
same,toxic effects,"cancer patients; human, in vivo",lack of toxic effects
same,mood,cancer patients; some cancer patients,elevation of mood
same,need for analgesia,cancer patients; some cancer patients,diminished need for analgesia
same,IC50,rat brain MAO A,93.3 µM
same,displacement of H^3-spiroperidol,[2],inability to displace H^3 -spiroperidol from rat caudate nucleus
same,inhibition of MAO type B versus MAO type A,"rat brain MAO B; in vitro and in vivo analyses, summary",inhibition of MAO type B greater than that for MAO type A
same,selectivity: concentrations inhibiting MAO B compared with MAO A,rat brain MAO B; rat brain,10 times less
same,IC50,"rat brain MAO B; substrate 14C-PEA, SD ±2.1",8 µM
same,IC50,human brain MAO A,139 µM
same,reversal of apomorphine and amphetamine induced locomotor changes,[3],inability to reverse apomorphine and amphetamine induced locomotor changes in rats
same,number and duration of PEA rotations,"[4]; PAPD 200 mg/kg, 1 h before PEA",increased the number and duration of PEA rotations
same,number or duration of PEA rotations,"[4]; PAPD 50, 100 and 150 mg/kg, 1 h before PEA",did not affect the number or duration of PEA rotations
same,maximal inhibition of platelet MAO B,human platelet MAO B; above 1.0 mM,100%
same,"inhibition of platelet MAO, relative potency",human platelet MAO B; compared with PAPD / pargyline,less potent than pargyline
same,IC50,"human platelet MAO B; platelets from 6 subjects, duplicate assays, SD 34.5×10^-6",63.8 µM
same,inhibition with increasing concentration,human platelet MAO B; range of 0.1 to 1.0 mM,linear inhibition
same,platelet MAO inhibition,human platelet MAO B; standard platelet analysis,significant degree of MAO inhibition
same,effect on duration of PEA's reversal of akinesia,"[5]; PAPD 200 mg/kg, 1 h prior to PEA",potentiated the duration of PEA's reversal of akinesia
same,effect on reversal induced by PEA,"[5]; PAPD 50 and 100 mg/kg, 1 h prior to PEA",antagonized the reversal induced by PEA
same,duration of activity with increased locomotion,[5]; [6],50 min
same,latency to reversal of akinesia,[5]; [6],less than five minutes
same,serotonin behaviors,"[5]; PAPD (200 mg/kg by context), interspersed with locomotor activity",headweaving and tremors
"NCCc1ccccc1 [PEA, phenylethylamine]",stereotype behavior,[1]; PEA 50 mg/kg alone,no stereotype behavior was observed
same,duration of rotations,[4]; PEA 50 mg/kg alone,30 min
same,ipsilateral turning,"[4]; rat, in vivo",induced ipsilateral turning
same,duration of activity / reversal of akinesia,[5]; PEA 50 mg/kg i.p. alone,30 min
same,latency to reversal of akinesia,"[5]; PEA 50 mg/kg i.p. alone, reserpine 10 mg/kg i.p.",less than five minutes
"C#CCN(C)CCCOc1ccc(Cl)cc1Cl [clorgyline, reference compound]",forepaw padding syndrome,[1]; clorgyline 5 mg/kg,did not produce this syndrome
same,other stereotype behavior,[1]; clorgyline 5 mg/kg,stereotyped headbobbing
same,"animals with forepaw padding, sniffing, headweaving and retropulsion","[1]; clorgyline 10 mg/kg, 1 h prior to PEA",100%
same,duration of stereotype behavior,"[1]; clorgyline, both doses (5 and 10 mg/kg)",30 min
same,activity compared with PEA control animals,[5]; [7],not as active as PEA control animals
same,duration of behavior,[5]; [7],45 min
same,latency to reversal of akinesia,[5]; [7],less than five minutes
same,serotonin type behavior,[5]; [7],"splayed hind legs, myoclonic jerks and headweaving"
"C#CCN(C)C(C)Cc1ccccc1 (centres unmarked) [deprenyl, reference compound]",animals with forepaw padding with continuous sniffing and headweaving,"[1]; deprenyl 5 mg/kg, 1 h prior to PEA",50%
same,animals with forepaw padding with continuous sniffing and headweaving,[1]; [8],100%
same,duration of stereotype behavior,"[1]; deprenyl, 1 h prior to PEA",60 min
same,other stereotype behavior,"[1]; deprenyl, 1 h prior to PEA",no other stereotype behavior observed
same,duration of PEA rotations,[4]; [8],increased the duration of PEA rotations
same,number of ipsilateral turns induced by PEA,"[4]; rat, in vivo",doubled the number of ipsilateral turns
C#CCN(C)Cc1ccccc1 [pargyline],duration of activity with increased locomotion,[5]; [9],45 min
same,latency to reversal of akinesia,[5]; [9],less than five minutes
"NNCCc1ccccc1 [phenelzine, reference compound]",potency relative to PAPD,human brain MAO B,two orders of magnitude more potent than PAPD
